Measured values as given in ChEMBL document CHEMBL6178019, “Discovery of CYP1A1 Inhibitors for Host-Directed Therapy against Sepsis” (J Med Chem, 2025).
Calls of active or inactive are those of the source. No cut-off for these calls is given here.

Assays:
[1] = Toxicity in male C57BL/6 mouse assessed as effect on blood urea nitrogen level in serum up to 100 mg/kg, ip measured after 12 hrs; assay type: organism-based; details: in vivo
[2] = tested on: RAW264.7; test: Induction of phagocytosis in mouse RAW264.7 cells assessed as upregulation of CD32 mRNA expression by qRT-PCR analysis; assay type: functional, cell-based
[3] = tested on: Staphylococcus aureus; test: Antibacterial activity against methicillin-resistant Staphylococcus aureus assessed as inhibition of bacterial growth at 0.02 to 2.5 mg/ml; assay type: functional, organism-based; details: dose 0.02-2.5 mg/ml
[4] = tested on: Staphylococcus aureus; test: Antibacterial activity against methicillin-resistant Staphylococcus aureus infected in C57BL/6 mouse model assessed as reversal of alanine transaminase level in serum at 25 mg/kg, ip administered for 12 hrs by absorbance based microplate reader; assay type: functional, organism-based
[5] = tested on: Escherichia coli; test: Antibacterial activity Escherichia coli infected in C57BL/6 mouse model assessed as increase in survival rate at 25 mg/kg, ip incubated for 12 hrs followed by bacterial infection and measured after 100 hrs by Kaplan Meier survival analysis; assay type: functional, organism-based; details: time 112.0 hrs
[6] = tested on: Mus musculus; test: Effect on CYP1A1 protein expression in C57BL/6 mouse liver infected with methicillin-resistant Staphylococcus aureus at 25 mg/kg, ip administered for 12 hrs by Western blot analysis; assay type: functional, organism-based
[7] = tested on: Staphylococcus aureus; test: Antibacterial activity against methicillin-resistant Staphylococcus aureus infected in C57BL/6 mouse model assessed as reduction in liver damage at 25 mg/kg, ip administered for 12 hrs by H and E staining based analysis; assay type: functional, organism-based
[8] = tested on: RAW264.7; test: Induction of phagocytosis in mouse RAW264.7 cells assessed as upregulation of SR-A1 mRNA expression by qRT-PCR analysis; assay type: functional, cell-based
[9] = tested on: RAW264.7; test: Induction of phagocytosis in mouse RAW264.7 cells assessed as upregulation of CD204 protein level by flow cytometric analysis; assay type: functional, cell-based
[10] = tested on: Staphylococcus aureus; test: Antibacterial activity against methicillin-resistant Staphylococcus aureus infected in C57BL/6 mouse model assessed as reversal of creatinine level in serum at 25 mg/kg, ip administered for 12 hrs by absorbance based microplate reader; assay type: functional, organism-based
[11] = tested on: Acinetobacter baumannii; test: Antibacterial activity against Acinetobacter baumannii infected in C57BL/6 mouse model assessed as reduction in bacterial load in peritoneal lavage fluid at 25 mg/kg, ip pretreated for 12 hrs followed by bacterial infection and measured after 24 hrs relative to control; assay type: functional; set-up: scale not given: the % may be the effect or the level left; details: time 36 hrs
[12] = tested on: RAW264.7; test: Induction of phagocytosis in zymosan A stimulated mouse RAW264.7 cells assessed as upregulation of CD68 protein level at 5.0 uM incubated for 12 hrs by flow cytometric analysis; assay type: functional, cell-based
[13] = Toxicity in male C57BL/6 mouse assessed as effect on alanine transaminase (ALT) level in serum up to 100 mg/kg, ip measured after 12 hrs; assay type: organism-based; details: in vivo
[14] = tested on: Pseudomonas aeruginosa; test: Antibacterial activity against Pseudomonas aeruginosa infected in C57BL/6 mouse assessed as increase in survival at 25 mg/kg, ip pretreated for 12 hrs followed by bacterial infection and measured after 60 hrs by Kaplan Meier survival analysis; assay type: functional, organism-based; details: time 72.0 hrs
[15] = tested on: Staphylococcus aureus; test: Antibacterial activity against methicillin-resistant Staphylococcus aureus infected in C57BL/6 mouse model assessed as reduction in bacterial dissemination from PLF to liver at 25 mg/kg, ip preadministered for 12 hrs followed by bacterial infection and measured after 24 hrs; assay type: functional, organism-based; details: time 36.0 hrs
[16] = tested on: Acinetobacter baumannii; test: Antibacterial activity against Acinetobacter baumannii assessed as inhibition of bacterial growth at 0.02 to 2.5 mg/ml; assay type: functional, organism-based; details: dose 0.02-2.5 mg/ml
[17] = tested on: Staphylococcus aureus; test: Antibacterial activity against methicillin-resistant Staphylococcus aureus infected in C57BL/6 mouse model assessed as reduction in bacterial load in peritoneal lavage fluid at 25 mg/kg, ip pretreated for 12 hrs followed by bacterial infection and measured after 24 hrs relative to control; assay type: functional; set-up: scale not given: the % may be the effect or the level left; details: time 36 hrs
[18] = tested on: RAW264.7; test: Induction of phagocytosis in mouse RAW264.7 cells at 5 uM incubated for 12 hrs by flow cytometric analysis; assay type: functional, cell-based
[19] = Toxicity in male C57BL/6 mouse assessed as change in body weight at 1 to 100 mg/kg, ip measured after 7 days; assay type: organism-based; details: in vivo, 168 h, dose 1-100 mg/kg, time 7 day
[20] = tested on: Staphylococcus aureus; test: Antibacterial activity against methicillin-resistant Staphylococcus aureus infected in C57BL/6 mouse assessed as reversal of blood urea nitrogen level in serum at 25 mg/kg, ip administered for 12 hrs by absorbance based microplate reader; assay type: functional, organism-based
[21] = molecular target: T1, CYP1A1 (Mus musculus, UniProt P00184); test: Inhibition of CYP1A1 in mouse RAW264.7 cells assessed as relative activity by measuring fold change at 500 nM incubated for 12 hrs by EROD assay relative to control; assay type: cell-based; details: read-out: FC
T1 sequence (P00184 whole entry): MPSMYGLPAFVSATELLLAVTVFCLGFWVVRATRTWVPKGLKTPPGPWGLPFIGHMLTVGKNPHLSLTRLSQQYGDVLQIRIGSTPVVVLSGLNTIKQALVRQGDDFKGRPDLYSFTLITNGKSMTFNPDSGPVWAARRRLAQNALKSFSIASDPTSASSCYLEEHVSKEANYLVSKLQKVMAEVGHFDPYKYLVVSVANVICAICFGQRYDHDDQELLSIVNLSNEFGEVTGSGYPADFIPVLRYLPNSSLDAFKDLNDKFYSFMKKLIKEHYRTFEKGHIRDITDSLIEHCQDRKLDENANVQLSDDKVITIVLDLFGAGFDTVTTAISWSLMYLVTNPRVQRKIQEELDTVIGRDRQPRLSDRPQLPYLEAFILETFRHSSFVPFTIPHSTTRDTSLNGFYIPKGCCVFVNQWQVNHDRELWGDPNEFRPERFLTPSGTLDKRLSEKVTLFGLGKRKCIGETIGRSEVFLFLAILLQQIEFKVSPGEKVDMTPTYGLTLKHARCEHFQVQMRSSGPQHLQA

[22] = tested on: Mus musculus; test: Effect on CYP1A1 protein expression in C57BL/6 mouse kidney infected with methicillin-resistant Staphylococcus aureus at 25 mg/kg, ip administered for 12 hrs by Western blot analysis; assay type: functional, organism-based
[23] = tested on: RAW264.7; test: Induction of phagocytosis in zymosan A stimulated mouse RAW264.7 cells assessed as upregulation of CD204 protein level at 5.0 uM incubated for 12 hrs by flow cytometric analysis; assay type: functional, cell-based
[24] = tested on: Staphylococcus aureus; test: Antibacterial activity against methicillin-resistant Staphylococcus aureus infected in CYP1A1 deficient mouse assessed as bacterial clearance in PLF at 25 mg/kg, ip pretreated for 12 hrs followed by bacterial infection for 24 hrs; assay type: functional, organism-based; details: time 36.0 hrs
[25] = molecular target: T1, CYP1A1; test: Inhibition of CYP1A1 in mouse RAW264.7 cells assessed as relative activity by measuring fold change at 5 uM incubated for 12 hrs by EROD assay relative to control; assay type: cell-based; details: read-out: FC
[26] = tested on: Staphylococcus aureus; test: Antibacterial activity against methicillin-resistant Staphylococcus aureus infected in macrophage-depleted mouse assessed as bacterial clearance in PLF at 25 mg/kg, ip pretreated with clodronate liposomes for 48 hrs followed by compound administration for 12 hrs and measured after 24 hrs of bacterial infection; assay type: functional, organism-based; details: time 36.0 hrs
[27] = Toxicity in male C57BL/6 mouse assessed as change in fur condition at 1 to 100 mg/kg, ip measured after 7 days; assay type: organism-based; details: in vivo, 168 h, dose 1-100 mg/kg, time 7 day
[28] = tested on: Staphylococcus aureus; test: Antibacterial activity against methicillin-resistant Staphylococcus aureus infected in CYP1A1 knockout mouse model assessed as increase in survival rate at 25 mg/kg, ip pretreated for 12 hrs followed by bacterial infection and measured after 60 hrs by Kaplan Meier survival analysis; assay type: functional, organism-based; details: time 72.0 hrs

Cn1cc(/C=C/C(=O)c2ccc3c(c2)n(C)c(=O)n3C)c2ccccc21
Activity [1]: Non-toxic
Activity [2]: Active
Activity [3]: Active
Activity [4]: Active
Activity [5]: Active
Activity [6]: inactive
Activity [7]: Active
Activity [8]: Active
Activity [9]: Active
Activity [10]: Active
Activity [11]: >70%
Activity [12]: Active
Activity [13]: Non-toxic
Activity [14]: Active
Activity [15]: Active
Activity [16]: Active
Activity [17]: >70%
Activity [18]: Active
Activity [19]: Non-toxic
Activity [20]: Active
fold induction at 12 h, 0.5 µM [21]: 0.72
Activity [22]: inactive
Activity [23]: Active
Activity [24]: inactive
fold induction at 12 h, 5 µM [25]: 0.25
Activity [26]: inactive
Activity [27]: Non-toxic
Activity [28]: inactive

C#Cc1ccccc1/C=C/C(=O)c1ccc2c(c1)n(C)c(=O)n2C
Activity [1]: Non-toxic
Activity [2]: Active
Activity [3]: Active
Activity [4]: Active
Activity [5]: Active
Activity [6]: inactive
Activity [7]: Active
Activity [8]: Active
Activity [9]: Active
Activity [10]: Active
Activity [11]: >70%
Activity [12]: Active
Activity [13]: Non-toxic
Activity [14]: Active
Activity [15]: Active
Activity [16]: Active
Activity [17]: >70%
Activity [18]: Active
Activity [19]: Non-toxic
Activity [20]: Active
fold induction at 12 h, 0.5 µM [21]: 0.07
Activity [22]: inactive
Activity [23]: Active
Activity [24]: inactive
fold induction at 12 h, 5 µM [25]: 0.03
Activity [26]: inactive
Activity [27]: Non-toxic
Activity [28]: inactive
